From patent US7179821B2, “Method of treating of demyelinating diseases or conditions” (Aventis Pharmaceuticals Inc., priority 2001, dated 2007) come the findings set out here.

This test deals with photothrombotic cerebral lesion. Put plainly: Edema after photothrombotic cerebral lesion in the rat. Type of test: in vivo. The method, then:
Method: Male Sprague Dawley rats (180–200 g bw) were anaesthetized with chloral hydrate (400 mg/kg ip) and placed in a stereotaxic apparatus. The skin was opened to reveal the skull and a cold light (Bioblock 150 W) was placed in contact with the right side of the skull forward of lambda. Bengal rose dye (10 mg/kg iv in saline) was administered intravenously and illumination of the skull started immediately and continued for 5 minutes. The skin was then sutured closed over the skull and the animal returned to its cage. Twenty-four hours after the photothrombotic lesion animals received HP184 made up in 1% tween in water by intravenous route at 0, 10 or 20 mg/kg body weight in a volume of 5 ml/kg. One hour later, animals were killed by decapitation and their brains removed (see appendix for protocol). Core samples were taken at the site of the lesion, and contralateral to the lesion, using a 6 mm diameter cork borer. Water content was determined by wet weight of tissue/dry weight of tissue and edema expressed as % excess water on lesioned sample compared with sample from contralateral hemisphere for each rat.

In the case of `CCCN(c1ccncc1F)n1cc(C)c2ccccc21` [HP184, N-(3-fluoro-4-pyridinyl)-N-propyl-3-methyl-1H-indole-1-amine], the “edema (% excess water) at 25 h post lesion” value is, setting by setting: (10 mg/kg iv at 24 h post lesion) 3.61 ± 0.23 ns % excess water; (20 mg/kg iv at 24 h post lesion) 3.20 ± 0.27 % excess water. The “reduction of the edema in the right cerebral cortex” value (20 mg/kg iv, one hour after administration, 25 hours after lesion) came out at 22%.
